In patent US5484803A, “Transcutaneous in vivo activation of photosensitive agents in blood” (priority 1995, dated 1996):

What was measured:
mice = test: Tolerability of light exposure starting 15 min post-injection (lethality); format: in vivo, Balb/c mice
Description: In order to determine the level of BPD in plasma during the light treatment, the following experiment was carried out. Fourteen Balb/c mice (22±1 g of weight) were injected with liposomal BPD at 20 μg/mouse (0.9 mg/kg) in 200 μl PBS per mouse. Blood samples were obtained by heart puncture at various time intervals between 15 min and 2 hours post-injection. Exposure to light started at 15 min post-injection for some mice. The BPD concentration in plasma was determined as described above.
At 2 hours post-injection, i.e., at the time point corresponding to the end of 1 hour exposure to light (108 J/cm^2) in the first example, the plasma level of BPD was 2.44 μg/ml. At the beginning of exposure to light, in the same example, the plasma level of BPD was about 4 μg/ml. To further evaluate skin photosensitivity at these low levels, mice were exposed to light at an earlier time post-injection, i.e., at 15 min, when the level of BPD in plasma was 6.32 μg/ml.

mouse blood [1] = test: Blood parameters immediately after light exposure (acute effect); format: in vivo, mice
Description: (§1) Blood Tests: Blood was drawn into syringes containing 50 μl of heparin (1000 units/ml saline). Blood samples (0.45 ml) from at least 1 mouse per time point were sent to the Diagnostic Laboratory at the University Hospital, University of British Columbia site, for analysis by a Coulter Counter. Blood morphology was determined on blood films prepared from selected samples by a laboratory technologist.
Fourteen mice (weight 22±1 g) were used in this study. Twelve mice were injected with 20 μg (0.9 mg/kg) of liposomal BPD (in 200 μl) and kept in the dark for 1 hour before exposure to light. The mice each were exposed to light for 30 min, 1 hour or 1.5 hours, which delivered light doses to the skin surface of 54, 108 and 162 J/cm^2, respectively. Immediately after light exposure, blood samples were obtained. At the corresponding times, blood samples were obtained from two mice injected with BPD, but not exposed to light. Two additional mice were tested one hour after injection.

mouse blood [2] = test: Blood cell morphology 2 weeks post-treatment; format: in vivo, Balb/c mice
Description: as §1
(§2) Six Balb/c mice (22±1 g weight) were prepared as described above. Five mice were injected twice (24 hour interval) with BPD from DMSO stock (not liposomal BPD) and exposed to light 1 hour after the injection. One mouse was not injected but was exposed to light (light-only control). During the first treatment the mice were injected with 15 μg BPD/mouse in 200 μl of PBS. During the second treatment the mice were injected with 20 μg BPD/mouse (0.9 mg/kg). A single mouse was used as a control for both treatments.
(§3) Immediately post-injection (on both occasions) the animals were kept for 1 hour in the dark and then were placed in individual plastic containers (9×4×5 cm), which were placed in the light box and exposed to light. The individual mice were removed from the light box at different intervals: 15, 30, 45, 60 and 75 min, respectively. The light doses delivered at the surface of the skin were 27, 54, 81, 108 and 135 J/cm^2, respectively. On the second occasion the same light doses were used; however, mice receiving higher light doses on day 1 received lower doses on day 2. The control mouse was exposed to light for 60 min on both occasions. During light exposure, the mice were constantly observed for signs of discomfort or itching. After the second light exposure, the mice were observed daily for a period of 2 weeks for appearance of the skin and general pattern of behavior.
(§4) Two weeks post-treatment blood samples were obtained from each mouse by a heart puncture, under halothane anesthesia. Then the mice were sacrificed and autopsied. Their spleen, liver and kidneys were weighed.

mouse blood [3] = test: Blood parameters two weeks after treatment (Coulter Counter); format: in vivo, Balb/c mice; conditions: for HB (hemoglobin) / Hct (hematocrit) / MCV / PLT (platelet count) / RBC / WBC: 2 weeks
Description: as §1, §2, §3, §4

[4] = BPD 0.87 mg/kg, light 0, 1 1/2 h post inj.
[5] = BPD 0.87 mg/kg, light 0, 2 1/2 h post inj.
[6] = BPD 0.87 mg/kg, light 0, 1 h post inj.
[7] = BPD 0.93 mg/kg, light 0, 2 h post inj.
[8] = BPD 0.93 mg/kg, light 162 J/cm^2, 2 1/2 h post inj.
[9] = BPD 0.95 mg/kg, light 54 J/cm^2, 1 1/2 h post inj.
[10] = BPD 0.95 mg/kg, light 108 J/cm^2, 2 h post inj.
[11] = mouse 1, light 27 then 135 J/cm^2
[12] = mouse 2, light 54 then 108 J/cm^2
[13] = mouse 3, light 81 then 81 J/cm^2
[14] = mouse 4, light 108 then 54 J/cm^2
[15] = mouse 5, light 135 then 27 J/cm^2

Substance: benzoprophyrin derivative monoacid ring A [BPD]
- starting plasma level of BPD lethal to mice (mice; light exposure of about 50 J/cm^2 whole body irradiation, 0.9 mg/kg, 15 min): about 6.5 μg/ml
- discomfort on light exposure (mice; light from 15 min post-injection): almost immediately uncomfortable
- death of mice on light exposure (mice; liposomal BPD 0.9 mg/kg, light from 15 min post-injection, 54 J/cm^2): died after 30 min of exposure
- acute effect on blood parameters (mouse blood [1]; 0.9 mg/kg liposomal BPD, 54-162 J/cm^2): no acute effect on blood parameters was observed
- HB (mouse blood [1]; [4]): 117 g/L
- Hct (mouse blood [1]; [4]): 0.329
- MCV (mouse blood [1]; [4]): 48.7 fL
- PLT (mouse blood [1]; [4]): 428 10^6 /ml
- RBC (mouse blood [1]; [4]): 6.77 10^9 /ml
- WBC (mouse blood [1]; [4]): 4.4 10^6 /ml
- HB (mouse blood [1]; [5]): 129 g/L
- Hct (mouse blood [1]; [5]): 0.372
- MCV (mouse blood [1]; [5]): 48.5 fL
- PLT (mouse blood [1]; [5]): 447 10^6 /ml
- RBC (mouse blood [1]; [5]): 7.68 10^9 /ml
- WBC (mouse blood [1]; [5]): 3.9 10^6 /ml
- HB (mouse blood [1]; [6]): 124 g/L
- Hct (mouse blood [1]; [6]): 0.368
- MCV (mouse blood [1]; [6]): 48.4 fL
- PLT (mouse blood [1]; [6]): 608 10^6 /ml
- RBC (mouse blood [1]; [6]): 7.61 10^9 /ml
- WBC (mouse blood [1]; [6]): 5.5 10^6 /ml
- HB (mouse blood [1]; [7]): 129 g/L
- Hct (mouse blood [1]; [7]): 0.382
- MCV (mouse blood [1]; [7]): 49.1 fL
- PLT (mouse blood [1]; [7]): 475 10^6 /ml
- RBC (mouse blood [1]; [7]): 7.79 10^9 /ml
- WBC (mouse blood [1]; [7]): 11.4 10^6 /ml
- HB (mouse blood [1]; [8]): 116 g/L
- Hct (mouse blood [1]; [8]): 0.353
- MCV (mouse blood [1]; [8]): 49.2 fL
- PLT (mouse blood [1]; [8]): 506 10^6 /ml
- RBC (mouse blood [1]; [8]): 7.17 10^9 /ml
- WBC (mouse blood [1]; [8]): 4.9 10^6 /ml
- HB (mouse blood [1]; [9]): 127 g/L
- Hct (mouse blood [1]; [9]): 0.363
- MCV (mouse blood [1]; [9]): 49.9 fL
- PLT (mouse blood [1]; [9]): 613 10^6 /ml
- RBC (mouse blood [1]; [9]): 7.28 10^9 /ml
- WBC (mouse blood [1]; [9]): 7.0 10^6 /ml
- HB (mouse blood [1]; [10]): 131 g/L
- Hct (mouse blood [1]; [10]): 0.378
- MCV (mouse blood [1]; [10]): 50.1 fL
- PLT (mouse blood [1]; [10]): 440 10^6 /ml
- RBC (mouse blood [1]; [10]): 7.53 10^9 /ml
- WBC (mouse blood [1]; [10]): 8.5 10^6 /ml
- Monocytes (mouse blood [2]; [11]): 1 % WBC
- Granulocytes (mouse blood [2]; mouse 1, light 27 then 135 J/cm^2, normal 12-15): 9 % WBC
- Lymphocytes (mouse blood [2]; mouse 1, light 27 then 135 J/cm^2, normal 65-85): 90 % WBC
- Monocytes (mouse blood [2]; [12]): 1 % WBC
- Granulocytes (mouse blood [2]; mouse 2, light 54 then 108 J/cm^2, normal 12-15): 11 % WBC
- Lymphocytes (mouse blood [2]; mouse 2, light 54 then 108 J/cm^2, normal 65-85): 88 % WBC
- Monocytes (mouse blood [2]; [13]): 3 % WBC
- Granulocytes (mouse blood [2]; mouse 3, light 81 then 81 J/cm^2, normal 12-15): 19 % WBC
- Lymphocytes (mouse blood [2]; mouse 3, light 81 then 81 J/cm^2, normal 65-85): 78 % WBC
- Monocytes (mouse blood [2]; [14]): 2 % WBC
- Granulocytes (mouse blood [2]; mouse 4, light 108 then 54 J/cm^2, normal 12-15): 36 % WBC
- Lymphocytes (mouse blood [2]; mouse 4, light 108 then 54 J/cm^2, normal 65-85): 62 % WBC
- Monocytes (mouse blood [2]; [15]): 1 % WBC
- Granulocytes (mouse blood [2]; mouse 5, light 135 then 27 J/cm^2, normal 12-15): 7 % WBC
- Lymphocytes (mouse blood [2]; mouse 5, light 135 then 27 J/cm^2, normal 65-85): 92 % WBC
- HB (hemoglobin) (mouse blood [3]; [11]): 122 g/L
- Hct (hematocrit) (mouse blood [3]; [11]): 0.352
- MCV (mouse blood [3]; [11]): 49.5 fL
- PLT (platelet count) (mouse blood [3]; [11]): 328 10^6 /ml
- RBC (mouse blood [3]; [11]): 7.11 10^9 /ml
- WBC (mouse blood [3]; [11]): 4.0 10^6 /ml
- HB (hemoglobin) (mouse blood [3]; [12]): 126 g/L
- Hct (hematocrit) (mouse blood [3]; [12]): 0.382
- MCV (mouse blood [3]; [12]): 49.2 fL
- PLT (platelet count) (mouse blood [3]; [12]): 274 10^6 /ml
- RBC (mouse blood [3]; [12]): 7.76 10^9 /ml
- WBC (mouse blood [3]; mouse 2, light 54 then 108 J/cm^2, platelet aggregate may contribute): 14.7 10^6 /ml
- HB (hemoglobin) (mouse blood [3]; [13]): 124 g/L
- Hct (hematocrit) (mouse blood [3]; [13]): 0.365
- MCV (mouse blood [3]; [13]): 48.9 fL
- PLT (platelet count) (mouse blood [3]; [13]): 119 10^6 /ml
- RBC (mouse blood [3]; [13]): 7.46 10^9 /ml
- WBC (mouse blood [3]; [13]): 8.2 10^6 /ml
- HB (hemoglobin) (mouse blood [3]; [14]): 123 g/L
- Hct (hematocrit) (mouse blood [3]; [14]): 0.364
- MCV (mouse blood [3]; [14]): 47.6 fL
- PLT (platelet count) (mouse blood [3]; [14]): 438 10^6 /ml
- RBC (mouse blood [3]; [14]): 7.65 10^9 /ml
- WBC (mouse blood [3]; [14]): 7.6 10^6 /ml
- HB (hemoglobin) (mouse blood [3]; [15]): 108 g/L
- Hct (hematocrit) (mouse blood [3]; [15]): 0.316
- MCV (mouse blood [3]; [15]): 48.8 fL
- PLT (platelet count) (mouse blood [3]; [15]): 134 10^6 /ml
- RBC (mouse blood [3]; [15]): 6.47 10^9 /ml
- WBC (mouse blood [3]; [15]): 2.9 10^6 /ml
- all blood values (Tables 3 and 4) (mouse blood [3]; two weeks post-treatment): within normal ranges
